Key:
[1] = target: T1, NURR-1/RXRα (Homo sapiens, UniProt P19793); test: Transactivation test, NURR-1-Gal4/RXRα, luciferase reporter in Cos-7 cells; assay type: cell-based; conditions: for Emax: COS-7, induction level relative to reference XCT0135908 at 2×10^−5 M (=100%), read-out: hNurr1_RXRaFL Emax (%); for EC50: Cos-7 cells, NURR-1-Gal4/RXRα, luciferase reporter, read-out: hNurr1_RXRaFL EC50
T1 construct: expressed in transfected cells; host or cells: Cos-7 cells
Experimental: (§1) The ability of the compounds according to the invention to behave as an activator of the heterodimers formed by the NURR-1 nuclear receptor and the RXR nuclear receptors was measured by means of an in vitro test. A transactivation test was used as primary selection (screening) test. Cos-7 cells were cotransfected with a plasmid expressing a chimera of the human NURR-1-Gal4 receptor, a plasmid expressing the human RXR receptor (RXRα or RXRγ receptor) and a 5Gal4pGL3-TK-Luc reporter plasmid. The transfctions were carried out using a chemical agent (Jet PEI). The transfected cells were distributed into 384-well plates and left to stand for 21 hours. At time 24 hours the culture medium was changed. The test products were added (final concentration of between 10^''4 and 3×10^-10 M) to the culture medium. After incubation overnight, the lucifeiase expression was measured after addition of SteadyGlo according to the instructions of the manufacturer (Promega). […] The induction levels (Emax) were calculated relative to the basal activity of each heterodimer.

[2] = target: T2, NURR-1/RXRγ (Homo sapiens, UniProt P48443); test: Transactivation test, NURR-1-Gal4/RXRγ, luciferase reporter in Cos-7 cells; assay type: cell-based; conditions: for Emax: COS-7, induction level relative to reference XCT0135908 at 2×10^−5 M (=100%), read-out: hNurr1_RXRgFL Emax (%); for EC50: Cos-7 cells, NURR-1-Gal4/RXRγ, luciferase reporter, read-out: hNurr1_RXRgFL EC50
T2 construct: expressed in transfected cells; host or cells: Cos-7 cells
T2 sequence (P48443 whole entry, the tested form may be a part): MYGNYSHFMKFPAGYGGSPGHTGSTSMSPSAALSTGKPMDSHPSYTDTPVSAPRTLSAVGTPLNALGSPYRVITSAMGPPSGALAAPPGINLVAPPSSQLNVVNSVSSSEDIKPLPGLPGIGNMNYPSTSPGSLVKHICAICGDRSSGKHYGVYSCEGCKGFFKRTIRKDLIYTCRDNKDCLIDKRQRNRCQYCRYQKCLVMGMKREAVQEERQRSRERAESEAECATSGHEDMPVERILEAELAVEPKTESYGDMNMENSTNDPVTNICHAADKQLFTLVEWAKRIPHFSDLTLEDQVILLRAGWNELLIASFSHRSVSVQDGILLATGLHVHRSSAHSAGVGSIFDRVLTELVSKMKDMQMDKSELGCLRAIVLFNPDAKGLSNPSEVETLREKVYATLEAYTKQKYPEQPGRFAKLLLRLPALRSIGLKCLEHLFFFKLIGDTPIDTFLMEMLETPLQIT
T2 sequence (P43354 whole entry partner, the tested form may be a part): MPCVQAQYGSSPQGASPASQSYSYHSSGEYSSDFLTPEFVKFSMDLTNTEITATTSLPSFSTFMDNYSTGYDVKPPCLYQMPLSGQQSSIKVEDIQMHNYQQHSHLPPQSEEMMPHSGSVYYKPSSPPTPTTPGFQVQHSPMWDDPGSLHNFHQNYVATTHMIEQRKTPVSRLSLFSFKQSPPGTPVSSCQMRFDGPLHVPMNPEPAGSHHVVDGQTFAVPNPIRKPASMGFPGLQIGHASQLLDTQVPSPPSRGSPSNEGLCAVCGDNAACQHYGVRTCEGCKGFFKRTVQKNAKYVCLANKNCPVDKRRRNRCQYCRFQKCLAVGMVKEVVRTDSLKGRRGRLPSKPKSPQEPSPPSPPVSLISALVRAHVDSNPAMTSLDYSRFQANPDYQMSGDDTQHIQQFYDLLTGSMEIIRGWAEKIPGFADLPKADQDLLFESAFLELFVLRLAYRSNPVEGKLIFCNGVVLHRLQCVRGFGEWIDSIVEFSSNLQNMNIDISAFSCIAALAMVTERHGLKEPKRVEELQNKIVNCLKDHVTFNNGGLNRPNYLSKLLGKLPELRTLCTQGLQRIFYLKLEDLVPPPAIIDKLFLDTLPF
T2 sequence (P04386 1-147 partner limits assumed): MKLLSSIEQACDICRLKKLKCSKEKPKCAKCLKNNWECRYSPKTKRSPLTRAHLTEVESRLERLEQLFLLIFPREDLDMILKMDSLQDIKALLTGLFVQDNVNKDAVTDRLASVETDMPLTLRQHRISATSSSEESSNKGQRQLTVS
Experimental: as §1

[3] = induction level relative to reference XCT0135908 at 2×10^−5 M (=100%)

T1 sequence (P19793 whole entry, the tested form may be a part): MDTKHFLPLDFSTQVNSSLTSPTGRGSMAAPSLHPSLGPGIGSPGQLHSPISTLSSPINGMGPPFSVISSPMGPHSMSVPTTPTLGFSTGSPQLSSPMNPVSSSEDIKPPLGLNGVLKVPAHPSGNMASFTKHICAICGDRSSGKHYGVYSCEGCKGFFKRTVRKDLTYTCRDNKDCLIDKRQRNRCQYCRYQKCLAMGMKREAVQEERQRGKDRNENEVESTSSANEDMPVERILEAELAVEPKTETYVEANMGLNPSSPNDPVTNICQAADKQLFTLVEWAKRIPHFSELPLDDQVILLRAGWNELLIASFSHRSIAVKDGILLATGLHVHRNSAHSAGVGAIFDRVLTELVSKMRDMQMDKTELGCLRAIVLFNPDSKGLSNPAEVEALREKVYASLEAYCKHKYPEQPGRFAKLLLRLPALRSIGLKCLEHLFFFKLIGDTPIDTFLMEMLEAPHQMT
T1 sequence (P43354 whole entry partner, the tested form may be a part): as the sequence (P43354 whole entry partner, the tested form may be a part) above
T1 sequence (P04386 1-147 partner limits assumed): as the sequence (P04386 1-147 partner limits assumed) above

Row | Structure (SMILES) | Emax [1] | EC50 [1] | Emax [2] | EC50 [2] | hNurr1_RXRaFL Emax (%) [1, 3] | hNurr1_RXRgFL Emax (%) [2, 3]
1 | Cc1cn(-c2cc(OC(C)C)cc(N3CC(C(=O)O)C3)c2)c2ccc(C(F)(F)F)cc12 [Example 54, 1-[3-isopropoxy-5-[3-methyl-5-(trifloruomethyl)indol-1-yl]phenyl]azetidine-3-carboxylic acid] | 76% | 1400 nM | 100% | 2240 nM | – | –
2 | Cc1cc(N2CC(C)(C(=O)O)C2)cc(-n2cc(C)c3cc(C(F)(F)F)ccc32)c1 [Example 55, 3-methyl-1-[3-methyl-5-[3-methyl-5-(trifluoromethyl)indol-1-yl]phenyl]azetidine-3-carboxylic acid] | 80% | 189 nM | 73% | 218 nM | – | –
3 | Cc1cc(N2CC(C(=O)O)C2)cc(-n2cc(Cl)c3cc(C(F)(F)F)ccc32)c1 [Example 57, 1-[3-[3-chloro-5-(triflurooemthyl)indol-1-yl]-5-methylphenyl]azetidine-3-carboxylic acid] | – | 1 nM | – | 2 nM | 126% | 114%
4 | Cc1cc(N2CC(C(=O)O)C2)cc(S(=O)(=O)n2cc(C)c3cc(C(F)(F)F)ccc32)c1 [Example 60, 1-[3-methyl-5-[3-methyl-5-(trifluoromethyl)indol-1-yl]sulfonylphenyl]azetidine-3-carboxylic acid] | 40% | 898 nM | 24% | 1700 nM | – | –
5 | CCCNc1ccc(C(C)C)cc1-c1cccc(N2CC(C(=O)O)C2)c1 [Example 68, 1-[3-[5-isopropyl-2-(propylamino)phenyl]phenyl]azetidine-3-carboxylic acid] | 127% | 9 nM | 143% | 12 nM | – | –
6 | O=C(O)C1CN(c2cccc(-c3cc(C(F)(F)F)cc(Cl)n3)c2)C1 [Example 74, 1-[3-[6-chloro-4-(trifluoromethyl)2-pyridyl]phenyl]azetidine-3-carboxylic acid] | 121% | 185 nM | 86% | 223 nM | – | –
7 | CC(C)(C)c1cc(F)cc(-c2cccc(N3CC(C(=O)O)C3)c2)c1 [Example 75, 1-[3-(3-tert-butyl-5-fluorophenyl)phenyl]azetidine-3-carboxylic acid] | 106% | 57 nM | 85% | 40 nM | – | –
8 | O=C(O)C1CN(c2cccc(-c3cc(Cl)nc(C(F)(F)F)c3)c2)C1 [Example 78] | 93% | 207 nM | 98% | 339 nM | – | –
9 | CC(C)(C)c1cc(-c2cccc(N3CC(C(=O)O)C3)c2)nc(C(C)(C)C)n1 [Example 81, 1-[3-(2,6-di-tert-butylpyrimidin-4-yl)phenyl]azetidine-3-carboxylic acid] | 108% | 50 nM | 107% | 112 nM | – | –
10 | CC1(C(=O)O)CN(c2cccc(-c3ccc4c(c3)C(C)(C)CCC4(C)C)c2)C1 [Example 87] | 69% | > 5000 nM | 38% | > 5000 nM | – | –

Second part, the compound after the results:

Row | Emax [1] | EC50 [1] | Emax [2] | EC50 [2] | hNurr1_RXRaFL Emax (%) [1, 3] | hNurr1_RXRgFL Emax (%) [2, 3] | Structure (SMILES)
11 | 86% | 83 nM | 117% | 117 nM | – | – | Cc1cn(-c2cc(OC(F)(F)F)cc(N3CC(C(=O)O)C3)c2)c2ccc(C(F)(F)F)cc12 [Example 52, 1-[3-[3-methyl-5-(trifluoromethyl)indol-1-yl]-5-(trifluoromethoxy)phenyl]azetidine-3-carboxylic acid]
12 | 83% | 141 nM | 76% | 212 nM | – | – | Cc1cn(-c2cc(C(C)C)cc(N3CC(C(=O)O)C3)c2)c2ccc(C(F)(F)F)cc12 [Example 53, 1-[3-isopropyl-5-[3-methyl-5-(trifluoromethyl)indol-1-yl]phenyl]azetidine-3-carboxylic acid]
13 | 46% | > 5000 nM | 38% | 1080 nM | – | – | Cc1cn(-c2cc(N3CC(C(=O)O)C3)cc(C(C)(C)C)c2)c2ccc(C(F)(F)F)cc12 [Example 56, 1-[3-tert-butyl-5-[3-methyl-5-(trifluoromethyl)indol-1-yl]phenyl]azetidine-3-carboxylic acid]
14 | 68% | 1380 nM | 39% | 3580 nM | – | – | Cc1cn(S(=O)(=O)c2cccc(N3CC(C(=O)O)C3)c2)c2ccc(C(F)(F)F)cc12 [Example 59, 1-[3-[3-methyl-5-(trifluoromethyl)indol-1-yl]sulfonylphenyl]azetidine-3-carboxylic acid]
15 | 86% | 2 nM | 82% | 5 nM | – | – | CN1CC(C)(C)Oc2cc(C(F)(F)F)cc(-c3cccc(N4CC(C(=O)O)C4)c3)c21 [Example 63, 1-[3-[2,2,4-trimethyl-7-(trifluoromethyl)-3H-1,4-benzoxazine-5-yl]phenyl]azetidine-3-carboylic acid]
16 | 67% | 25 nM | 82% | 28 nM | – | – | CCCC1CNc2c(cc(C(F)(F)F)cc2-c2cccc(N3CC(C(=O)O)C3)c2)O1 (centres unmarked) [Example 67, 1-[3-[2-propyl-7-(trifluoromethyl)-3,4-dihydro-2H-1,4-benzoxazin-5-yl]phenyl]azetidine-3-carboxylic acid]
17 | 104% | 9 nM | 120% | 12 nM | – | – | CC(C)c1cc2c(c(-c3cccc(N4CC(C(=O)O)C4)c3)c1)CCC(C)(C)O2 [Example 70, 1-[3-(7-isopropyl-2,2-dimethylchroman-5-yl)phenyl]azetidine-3-carboxylic acid]
18 | 71% | 741 nM | 51% | 2560 nM | – | – | O=C(O)C1CN(c2cccc(-c3ccc(Cl)c(C(F)(F)F)n3)c2)C1 [Example 76, 1-[3-[5-chloro-6-(trifluromethyl)-2-pyridyl]phenyl]azetidine-3-carboxylic acid]
19 | 67% | 423 nM | 105% | 1200 nM | – | – | O=C(O)C1CN(c2cccc(-c3cnc(Cl)c(C(F)(F)F)c3)c2)C1 [Example 77, 1-[3-[6-chloro-5-(trifluoromethyl)-3-pyridyl]phenyl]azetidine-3-carboxylic acid]
20 | 115% | 177 nM | 88% | 543 nM | – | – | CN(C)c1nc(-c2cccc(N3CC(C(=O)O)C3)c2)cc(C(F)(F)F)n1 [Example 79, 1-[3-[2-(dimethylamino)-6-(trifluoromethyl)pyrimidin-4-yl]phenyl]azetidine-3-carboxylic acid]
21 | 104% | 316 nM | 89% | 335 nM | – | – | CN(C)c1cc(C(F)(F)F)cc(-c2cccc(N3CC(C(=O)O)C3)c2)n1 [Example 80, 1-[3-[6-(dimethylamino)-4-(trifluoromethyl)2-pyridyl]phenyl]azetidine-3-carboxylic acid]
22 | 67% | 282 nM | 68% | 596 nM | – | – | O=C(O)C1CN(c2cccc(-c3cc(OC(F)(F)F)cc4cccnc34)c2)C1 [Example 83, 1-[3-[6-(trifluoromethoxy)-8-quinolyl]phenyl]azetidine-3-carboxylic acid]
23 | 112% | 44 nM | 120% | 82 nM | – | – | CC(C)(C)c1cccc(-c2cccc(N3CC(C(=O)O)C3)c2)c1 [Example 84, 1-[3-(3-tert-butylphenyl)phenyl]azetidine-3-carboxylic acid]

From patent US20170066717A1, “NEW PHENYLAZETIDINECARBOXYLATE OR -CARBOXAMIDE COMPOUNDS” (INVENTIVA, priority 2014, published 2017)
